# Results taken from patent US8399683B2 (TetraLogic Pharmaceuticals, priority 2008, dated 2013).
# What was measured:
# XIAP BIR-3 = molecular target: T1, XIAP BIR-3 (Homo sapiens, UniProt P98170); assay: Fluorescence polarization binding affinity to XIAP BIR-3 (competition with AbuRPF-K(5-Fam)-NH2); conditions: 5 nM labeled peptide, 40 nM BIR3, 15 min at RT, pH 7.5; reported as ranges
# T1 construct: 40 nM of the respective IAP BIR3
# Protocol: (§1) The binding affinities of the compounds are reported as a KD value (μM). Briefly, various concentrations of test peptides were mixed with 5 nM of the fluorescently labeled peptide (i.e., a mutated N-terminal Smac peptide—AbuRPF-K(5-Fam)-NH2) and 40 nM of the respective IAP BIR3 for 15 min at RT in […] of 0.1M Potassium Phosphate buffer, pH 7.5 containing […] bovine g-globulin. Following incubation, the polarization values (mP) were measured on a Victor2V (available from PerkinElmer Life Sciences) using a 485 nm excitation filter and a 520 nm emission filter. The reported KD values are supplied as ranges (A=<0.1 μM, B=0.1 μM to 1 μM, C>1 μM to 10 μM, D=>10 μM).
# cIAP-1 BIR-3 = cIAP-1 BIR-3 (Homo sapiens, UniProt Q13490); assay: Fluorescence polarization binding affinity to cIAP-1 BIR-3 (competition with AbuRPF-K(5-Fam)-NH2); conditions: 5 nM labeled peptide, 40 nM BIR3, 15 min at RT, pH 7.5; reported as ranges; read-out: KD (c-IAP-1 BIR3)
# cIAP-1 BIR-3, sequence (Q13490 266-352 limits assumed): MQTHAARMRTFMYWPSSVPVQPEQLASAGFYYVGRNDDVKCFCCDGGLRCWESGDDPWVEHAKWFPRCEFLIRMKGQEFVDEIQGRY
# Protocol: as §1
# SK-OV-3 cells = assay: Growth inhibition of ovarian cancer cell line SK-OV-3 (MTT assay, cell survival); format: cell-based; conditions: Homo sapiens, drug concentration that results in 50% cell survival, 72 hrs incubation, reported as ranges
# Protocol: Compounds of the invention also were tested for their ability to inhibit the growth of an ovarian cancer cell line, SK-OV-3. A known assay previously used for measuring cell growth (as described in Hansen, M. B., Nielsen, S. E., and Berg, K. (1989) J. Immunol. Methods 119, 203-210 and incorporated herein by reference in its entirety) was used. Briefly, SK-OV-3 cells are seeded in 96-well plates in McCoy's medium containing 10% fetal bovine serum albumin (5,000 per well) and incubated overnight at 37° C. The next day, test compounds are added at various concentrations (0.003-10 μM) and the plates are incubated at 37° C. for an additional 72 hrs. This incubation time was considered to be optimal for measuring inhibitory effects of the different compounds tested. 50 microliters of 5 mg/mL MTT reagent is added to each well and the plates are incubated at 37° C. for another three (3) hours. At the end of the three (3) hour incubation period, 50 microliters of DMSO is added to each well to dissolve cells and the optical density (OD) of the wells is measured with a microplate reader (Victor^2 1420, Wallac, Finland) at 535 nm. Cell survival (CS) was calculated using the following equation: CS=(OD treated well/mean OD control wells)×100%.
# The CC50 (reported in the following tables), is defined as the drug concentration that results in 50% cell survival (CS), and is derived by calculating the point where the dose-response curve crosses the 50% CS point using GraphPad Prism. The reported CC50 values are supplied as ranges (A=<0.1 μM, B=0.1 μM to 1 μM, C=>1 μM to 10 μM, D=>10 μM).
# T1 sequence (P98170 241-356 limits assumed): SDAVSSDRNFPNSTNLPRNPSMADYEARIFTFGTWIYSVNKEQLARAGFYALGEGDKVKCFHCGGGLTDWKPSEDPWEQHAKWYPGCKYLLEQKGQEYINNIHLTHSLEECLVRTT
Compound,Kd (XIAP BIR-3) [nM],Kd (cIAP-1 BIR-3) [nM],CC50 (SK-OV-3 cells) [nM]
"CN[C@@H](C)C(=O)N[C@H](C(=O)N1CC[C@@H]2[C@H]1[C@@H](c1c[nH]c3cc(F)ccc13)CN2C(=O)c1ccccc1)C1CCCCC1 [Example 38, N-{2-[4-Benzoyl-6-(6-fluoro-1H-indol-3-yl)-hexahydro-pyrrolo[3,2-b]pyrrol-1-yl]-1-cyclohexyl-2-oxo-ethyl}-2-methylamino-propionamide]",< 100,< 100,< 100
"CN[C@@H](C)C(=O)N[C@H](C(=O)N1CC[C@@H]2[C@H]1[C@@H](c1c[nH]c3cc(F)ccc13)CN2C(=O)Cc1ccccc1)C1CCCCC1 [Example 39, N-{1-Cyclohexyl-2-[6-(6-fluoro-1H-indol-3-yl)-4-phenylacetyl-hexahydro-pyrrolo[3,2-b]pyrrol-1-yl]-2-oxo-ethyl}-2-methylamino-propionamide]",< 100,< 100,< 100
"CN[C@@H](C)C(=O)N[C@H](C(=O)N1CC[C@@H]2[C@H]1[C@@H](c1c[nH]c3cc(F)ccc13)CN2C(=O)C1CC1)C1CCCCC1 [Example 40, N-{1-Cyclohexyl-2-[4-cyclopropanecarbonyl-6-(6-fluoro-1H-indol-3-yl)-hexahydro-pyrrolo[3,2-b]pyrrol-1-yl]-2-oxo-ethyl}-2-methylamino-propionamide]",< 100,< 100,< 100
"CCOC(=O)CN1C[C@H](c2c[nH]c3cc(F)ccc23)[C@@H]2[C@H]1CCN2C(=O)[C@@H](NC(=O)[C@H](C)NC)C1CCCCC1 [Example 41, [4-[2-Cyclohexyl-2-(2-methylamino-propionylamino)-acetyl]-3-(6-fluoro-1H-indol-3-yl)-hexahydro-pyrrolo[3,2-b]pyrrol-1-yl]-acetic acid ethyl ester]",< 100,< 100,100 to 1000
"CN[C@@H](C)C(=O)N[C@H](C(=O)N1CC[C@@H]2[C@H]1[C@@H](c1c[nH]c3cc(F)ccc13)CN2CC(=O)O)C1CCCCC1 [Example 42, [4-[2-Cyclohexyl-2-(2-methylamino-propionylamino)-acetyl]-3-(6-fluoro-1H-indol-3-yl)-hexahydro-pyrrolo[3,2-b]pyrrol-1-yl]-acetic acid]",100 to 1000,< 100,1000 to 10000
"CN[C@@H](C)C(=O)N[C@H](C(=O)N1CC[C@@H]2[C@H]1[C@@H](c1c[nH]c3cc(F)ccc13)CN2S(C)(=O)=O)C1CCCCC1 [Example 43, N-{1-Cyclohexyl-2-[6-(6-fluoro-1H-indol-3-yl)-4-methanesulfonyl-hexahydro-pyrrolo[3,2-b]pyrrol-1-yl]-2-oxo-ethyl}-2-methylamino-propionamide]",< 100,< 100,< 100
CN[C@@H](C)C(=O)N[C@H](C(=O)N1CC[C@@H]2[C@H]1[C@H](c1c[nH]c3cc(F)ccc13)CN2S(C)(=O)=O)C1CCCCC1 [Example 44],1000 to 10000,100 to 1000,1000 to 10000
"CC[C@H](NC(=O)[C@H](C)NC)C(=O)N1CC[C@@H]2[C@H]1[C@H](c1c[nH]c3cc(F)ccc13)CN2S(C)(=O)=O [Example 45, N-{1-[6-(6-Fluoro-1H-indol-3-yl)-4-methanesulfonyl-hexahydro-pyrrolo[3,2-b]pyrrole-1-carbonyl]-propyl}-2-methylamino-propionamide]",> 10000,1000 to 10000,> 10000
"CC[C@H](NC(=O)[C@H](C)NC)C(=O)N1CC[C@@H]2[C@H]1[C@@H](c1c[nH]c3cc(F)ccc13)CN2S(C)(=O)=O [Example 46, N-{1-[6-(6-Fluoro-1H-indol-3-yl)-4-methanesulfonyl-hexahydro-pyrrolo[3,2-b]pyrrole-1-carbonyl]-propyl}-2-methylamino-propionamide]",< 100,< 100,< 100
"CN[C@@H](C)C(=O)N[C@H](C(=O)N1CC[C@@H]2[C@H]1[C@H](c1c[nH]c3cc(F)ccc13)CN2S(C)(=O)=O)C(C)C [Example 47, N-{1-[6-(6-Fluoro-1H-indol-3-yl)-4-methanesulfonyl-hexahydro-pyrrolo[3,2-b]pyrrole-1-carbonyl]-2-methyl-propyl}-2-methylamino-propionamide]",100 to 1000,100 to 1000,> 10000
"CN[C@@H](C)C(=O)N[C@H](C(=O)N1CC[C@@H]2[C@H]1[C@@H](c1c[nH]c3cc(F)ccc13)CN2S(C)(=O)=O)C(C)C [Example 48, N-{1-[6-(6-Fluoro-1H-indol-3-yl)-4-methanesulfonyl-hexahydro-pyrrolo[3,2-b]pyrrole-1-carbonyl]-2-methyl-propyl}-2-methylamino-propionamide]",< 100,< 100,< 100
"CN[C@@H](C)C(=O)N[C@H](C(=O)N1CC[C@@H]2[C@H]1[C@H](c1c[nH]c3cc(F)ccc13)CN2S(C)(=O)=O)C(C)(C)C [Example 49, N-{1-[6-(6-Fluoro-1H-indol-3-yl)-4-methanesulfonyl-hexahydro-pyrrolo[3,2-b]pyrrole-1-carbonyl]-2,2-dimethyl-propyl}-2-methylamino-propionamide]",1000 to 10000,100 to 1000,> 10000
"CN[C@@H](C)C(=O)N[C@H](C(=O)N1CC[C@@H]2[C@H]1[C@@H](c1c[nH]c3cc(F)ccc13)CN2S(C)(=O)=O)C(C)(C)C [Example 50, N-{1-[6-(6-Fluoro-1H-indol-3-yl)-4-methanesulfonyl-hexahydro-pyrrolo[3,2-b]pyrrole-1-carbonyl]-2,2-dimethyl-propyl}-2-methylamino-propionamide]",< 100,< 100,< 100
"CN[C@@H](C)C(=O)N[C@@H](CO)C(=O)N1CC[C@@H]2[C@H]1[C@H](c1c[nH]c3cc(F)ccc13)CN2S(C)(=O)=O [Example 51, N-{2-[6-(6-Fluoro-1H-indol-3-yl)-4-methanesulfonyl-hexahydro-pyrrolo[3,2-b]pyrrol-1-yl]-1-hydroxymethyl-2-oxo-ethyl}-2-methylamino-propionamide]",> 10000,1000 to 10000,> 10000
"CN[C@@H](C)C(=O)N[C@@H](CO)C(=O)N1CC[C@@H]2[C@H]1[C@@H](c1c[nH]c3cc(F)ccc13)CN2S(C)(=O)=O [Example 52, N-{2-[6-(6-Fluoro-1H-indol-3-yl)-4-methanesulfonyl-hexahydro-pyrrolo[3,2-b]pyrrol-1-yl]-1-hydroxymethyl-2-oxo-ethyl}-2-methylamino-propionamide]",< 100,< 100,1000 to 10000
"CN[C@@H](C)C(=O)N[C@@H](COC)C(=O)N1CC[C@@H]2[C@H]1[C@H](c1c[nH]c3cc(F)ccc13)CN2S(C)(=O)=O [Example 53, N-{2-[6-(6-Fluoro-1H-indol-3-yl)-4-methanesulfonyl-hexahydro-pyrrolo[3,2-b]pyrrol-1-yl]-1-methoxymethyl-2-oxo-ethyl}-2-methylamino-propionamide]",> 10000,1000 to 10000,> 10000
CN[C@@H](C)C(=O)N[C@@H](COC)C(=O)N1CC[C@@H]2[C@H]1[C@@H](c1c[nH]c3cc(F)ccc13)CN2S(C)(=O)=O [Example 54],< 100,< 100,100 to 1000
